Reference: patent US10117430B2, “Malononitrile compounds for controlling animal pests” (BASF SE, priority 2012, dated 2018)

What was measured:
Type in all cases: in vivo
[1] = tested on: Cowpea Aphid (Aphis craccivora); assay: B.1 Cowpea aphid spray test on potted cowpea plants; conditions: in comparison with untreated controls, population reduction assessed after 24, 72 and 120 hours
Description: B.1 Cowpea Aphid (Aphis craccivora)
The active compounds were formulated in 50:50 (v/v) acetone:water. The test solution was prepared at the day of use. Potted cowpea plants colonized with approximately 100-150 aphids of various stages were sprayed after the pest population has been recorded. Population reduction was assessed after 24, 72, and 120 hours.

[2] = tested on: Orchid Thrips (Dichromothrips corbetti); assay: B.4 Orchid thrips floral-immersion test; conditions: 96 h, in comparison with untreated controls, after 4 days
Description: B.4 Orchid Thrips (Dichromothrips Corbetti)
Dichromothrips corbetti adults used for bioassay are obtained from a colony maintained continuously under laboratory conditions. For testing purposes, the test compound is diluted to a concentration of 300 ppm (wt compound: vol diluent) in a 1:1 mixture of acetone:water (vol:vol), plus 0.01% vol/vol Kinetic® surfactant. Thrips potency of each compound is evaluated by using a floral-immersion technique. Plastic petri dishes are used as test arenas. All petals of individual, intact orchid flowers are dipped into treatment solution and allowed to dry. Treated flowers are placed into individual petri dishes along with 10-15 adult thrips. The petri dishes are then covered with lids. All test arenas are held under continuous light and a temperature of about 28° C. for duration of the assay. After 4 days, the numbers of live thrips are counted on each flower, and along inner walls of each petri dish. The level of thrips mortality is extrapolated from pre-treatment thrips numbers.

[3] = tested on: Vetch Aphid (Megoura viciae); assay: B.7 Vetch aphid test on broad bean leaf disks; conditions: foliar, 120 h, in comparison with untreated controls, 5 days
Description: B.7 Vetch Aphid (Megoura viciae)
For evaluating control of vetch aphid (Megoura viciae) through contact or systemic means the test unit consisted of 24-well-microtiter plates containing broad bean leaf disks. The compounds were formulated using a solution containing 75% v/v water and 25% v/v DMSO. Different concentrations of formulated compounds were sprayed onto the leaf disks at 2.5 μl, using a custom built micro atomizer, at two replications. After application, the leaf disks were air-dried and 5-8 adult aphids placed on the leaf disks inside the microtiter plate wells. The aphids were then allowed to suck on the treated leaf disks and incubated at about 23±1° C. and about 50±5% relative humidity for 5 days. Aphid mortality and fecundity was then visually assessed.

[4] = tested on: Tobacco Budworm (Heliothis virescens); assay: B.8 Tobacco budworm test on sprayed cotton plants; conditions: 96 h, in comparison with untreated controls, 4 days after treatment
Description: B.8 Tobacco Budworm (Heliothis virescens) I
The active compounds were formulated in cyclohexanone as a 10,000 ppm solution supplied in tubes. The tubes were inserted into an automated electrostatic sprayer equipped with an atomizing nozzle and they served as stock solutions for which lower dilutions were made in 50% acetone:50% water (v/v). A nonionic surfactant (Kinetic®) was included in the solution at a volume of 0.01% (v/v). Cotton plants were grown 2 plants to a pot and selected for treatment at the cotyledon stage. Test solutions were sprayed onto the foliage by an automated electrostatic plant sprayer equipped with an atomizing spray nozzle. The plants were dried in the sprayer fume hood and then removed from the sprayer. Each pot was placed into perforated plastic bags with a zip closure. About 10 to 11 budworm larvae were placed into the bag and the bags zipped closed. Test plants were maintained in a growth room at about 25° C. and about 20-40% relative humidity for 4 days, avoiding direct exposure to fluorescent light (24 hour photoperiod) to prevent trapping of heat inside the bags. Mortality and reduced feeding were assessed 4 days after treatment, compared to untreated control plants.

[5] = tested on: Boll Weevil (Anthonomus grandis); assay: B.9 Boll weevil microtiter diet test, egg and larval mortality; conditions: 120 h, in comparison with untreated controls, egg and larval mortality after 5 days
Description: B.9 Boll Weevil (Anthonomus grandis)
(§1) For evaluating control of boll weevil (Anthonomus grandis) the test unit consisted of 24-well-microtiter plates containing an insect diet and 20-30 A. grandis eggs. The compounds were formulated using a solution containing 75% v/v water and 25% v/v DMSO. Different concentrations of formulated compounds were sprayed onto the insect diet at 20 μl, using a custom built micro atomizer, at two replications. After application, microtiter plates were incubated at about 23±1° C. and about 50±5% relative humidity for 5 days. Egg and larval mortality was then visually assessed.

[6] = tested on: Rice brown plant hopper (Nilaparvata lugens); assay: B.11 Rice brown plant hopper test on sprayed rice seedlings; conditions: in comparison with untreated controls, after 72 hours
Description: B.11 Rice brown plant hopper (Nilaparvata lugens)
Rice seedlings were cleaned and washed 24 hours before spraying. The active compounds were formulated in 50:50 acetone:water (vol:vol) and 0.1% vol/vol surfactant (EL 620) was added. Potted rice seedlings were sprayed with 5 ml test solution, air dried, placed in cages and inoculated with 10 adults. Treated rice plants were kept at about 28-29° C. and relative humidity of about 50-60%. Percent mortality was recorded after 72 hours.

[7] = tested on: Yellow Fever Mosquito (Aedes aegypti); assay: whole plant or invertebrate; conditions: 48 h, in comparison with untreated controls, larval mortality after 2 days
Description: B.12 Yellow Fever Mosquito (Aedes aegypti)
For evaluating control of yellow fever mosquito (Aedes aegypti) the test unit consisted of 96-well-microtiter plates containing 200 μl of tap water per well and 5-15 freshly hatched A. aegypti larvae. The compounds or mixtures were formulated using a solution containing 75% water and 25% DMSO. Different concentrations of formulated compounds or mixtures were sprayed onto the insect diet at 2.5 μl, using a custom built micro atomizer, at two replications. After application, microtiter plates were incubated at 28±1° C., 80±5% relative humidity for 2 days. Larval mortality was then visually assessed.

[8] = tested on: Green Soldier Stink Bug (Nezara viridula); assay: B.15 Green soldier stink bug test on sprayed soybean pods; conditions: 120 h, in comparison with untreated controls, after 5 days
Description: B.15 Green Soldier Stink Bug (Nezara viridula)
The active compound is dissolved at the desired concentration in a mixture of 1:1 (vol:vol) distilled water:aceteone. Surfactant (Kinetic HV) is added at a rate of 0.01% (vol/vol). The test solution is prepared at the day of use. Soybean pods were placed in microwavable plastic cups lined with moist filter paper and inoculated with ten 3rd instar N. viridula. Using a hand atomizer, an approximately 2 ml solution is sprayed into each cup. Treated cups were kept at about 28-29° C. and relative humidity of about 50-60%. Percent mortality was recorded after 5 days.

[9] = tested on: Silverleaf Whitefly (Bemisia argentifolii); assay: B.5 Silverleaf whitefly test on sprayed cotton plants; conditions: 72 h, in comparison with untreated controls, 3 days after treatment
Description: B.5 Silverleaf Whitefly (Bemisia argentifolii)
The active compounds were formulated in cyclohexanone as a 10,000 ppm solution supplied in 1.3 ml ABgene® tubes. These tubes were inserted into an automated electrostatic sprayer equipped with an atomizing nozzle and they served as stock solutions for which lower dilutions were made in 50% acetone:50% water (v/v). A nonionic surfactant (Kinetic®) was included in the solution at a volume of 0.01% (v/v). Cotton plants at the cotyledon stage (one plant per pot) were sprayed by an automated electrostatic plant sprayer equipped with an atomizing spray nozzle. The plants were dried in the sprayer fume hood and then removed from the sprayer. Each pot was placed into a plastic cup and 10 to 12 whitefly adults (approximately 3-5 days old) were introduced. The insects were collected using an aspirator and 0.6 cm, nontoxic Tygon® tubing (R-3603) connected to a barrier pipette tip. The tip, containing the collected insects, was then gently inserted into the soil containing the treated plant, allowing insects to crawl out of the tip to reach the foliage for feeding. Cups were covered with a reusable screened lid (150-micron mesh polyester screen PeCap from Tetko, Inc.). Test plants were maintained in a growth room at 25° C. and 20-40% relative humidity for 3 days, avoiding direct exposure to fluorescent light (24 hour photoperiod) to prevent trapping of heat inside the cup. Mortality was assessed 3 days after treatment, compared to untreated control plants.

[10] = tested on: Green Peach Aphid (Myzus persicae); assay: B.3 Green peach aphid systemic test, artificial diet under membrane; conditions: 72 h, concentration of the test solution 2500 mg/L, 3 days
Source text: B.3 Green Peach Aphid (Myzus persicae)
For evaluating control of green peach aphid (Myzus persicae) through systemic means the test unit consisted of 96-well-microtiter plates containing liquid artificial diet under an artificial membrane. The compounds were formulated using a solution containing 75% v/v water and 25% v/v DMSO. Different concentrations of formulated compounds were pipetted into the aphid diet, using a custom built pipetter, at two replications. After application, 5-8 adult aphids were placed on the artificial membrane inside the microtiter plate wells. The aphids were then allowed to suck on the treated aphid diet and incubated at about 23±1° C. and about 50±5% relative humidity for 3 days. Aphid mortality and fecundity was then visually assessed.

[11] = tested on: Southern Armyworm (Spodoptera eridania); assay: B.6 Southern armyworm test on sprayed lima bean plants; conditions: 96 h, 500 ppm, in comparison with untreated controls, 4 days after treatment
Description: B.6 Southern Armyworm (Spodoptera eridania)
The active compounds were formulated in cyclohexanone as a 10,000 ppm solution supplied in 1.3 ml ABgene® tubes. These tubes were inserted into an automated electrostatic sprayer equipped with an atomizing nozzle and they served as stock solutions for which lower dilutions were made in 50% acetone:50% water (v/v). A nonionic surfactant (Kinetic®) was included in the solution at a volume of 0.01% (v/v). Lima bean plants (variety Sieva) were grown 2 plants to a pot and selected for treatment at the 1st true leaf stage. Test solutions were sprayed onto the foliage by an automated electrostatic plant sprayer equipped with an atomizing spray nozzle. The plants were dried in the sprayer fume hood and then removed from the sprayer. Each pot was placed into perforated plastic bags with a zip closure. Ten to 11 armyworm larvae were placed into the bag and the bags zipped closed. Test plants were maintained in a growth room at 25° C. and 20-40% relative humidity for 4 days, avoiding direct exposure to fluorescent light (24 hour photoperiod) to prevent trapping of heat inside the bags. Mortality and reduced feeding were assessed 4 days after treatment, compared to untreated control plants.

[12] = tested on: Red Spider Mite (Tetranychus kanzawai); assay: B.10 Red spider mite test on sprayed cowpea beans; conditions: in comparison with untreated controls, 72 hours after treatment
Description: B.10 Red Spider Mite (Tetranychus kanzawai)
The active compound is dissolved at the desired concentration in a mixture of 1:1 (vol:vol) distilled water:acetone. Add surfactant (Alkamuls® EL 620) at the rate of 0.1% (vol/vol). The test solution is prepared at the day of use. Potted cowpea beans of 7-10 days of age were cleaned with tap water and sprayed with 5 ml of the test solution using air driven hand atomizer. The treated plants were allowed to air dry and afterwards inculated with 20 or more mites by clipping a cassava leaf section with known mite population. Treated plants were placed inside a holding room at about 25-27° C. and about 50-60% relative humidity. Percent mortality was assessed 72 hours after treatment.

[13] = tested on: Mediterranean Fruitfly (Ceratitis capitata); assay: B.2 Mediterranean fruitfly microtiter diet test, egg and larval mortality; conditions: 120 h, in comparison with untreated controls, egg and larval mortality after 5 days
Description: B.2 Mediterranean Fruitfly (Ceratitis capitata)
as §1, with “Mediterranean fruitfly (Ceratitis capitata)” for “boll weevil (Anthonomus grandis)”, “microtiter” for “24-well-microtiter”, “50-80 C. capitata” for “20-30 A. grandis”, “5” for “20”, “28±1°” for “23±1°”, “80±5%” for “50±5%”

N#CC(C#N)(Cc1ccc(C(F)(F)F)nc1)c1ccccc1 [II-3]
≥ 75%: mortality at 500 ppm [1] | mortality at 500 ppm [2] | mortality at 2500 ppm [3] | mortality at 2500 ppm [4] | mortality at 2500 ppm [5] | mortality at 300 ppm [6] | mortality at 2500 ppm [7] | mortality at 500 ppm [8]

N#CC(C#N)(Cc1cccnc1)c1ccccc1 [II-31]
≥ 75%: mortality at 500 ppm [9] | mortality at 2500 ppm [4] | mortality at 2500 ppm [5]

N#CC(C#N)(Cc1ccc(F)nc1F)c1ccccc1 [II-50]
≥ 75%: mortality at 500 ppm [2] | mortality at 2500 ppm [4] | mortality at 2500 ppm [7]

N#CC(C#N)(Cc1ccc(F)cn1)c1ccccc1 [II-11]
≥ 75%: mortality at 2500 µg/mL [10] | mortality at 2500 ppm [4]

N#CC(C#N)(Cc1ccc(F)nc1F)c1cc(F)cc(F)c1 [II-52]
≥ 75%: mortality at 2500 µg/mL [10] | mortality at 500 ppm [2] | mortality at 2500 ppm [4] | mortality at 2500 ppm [5]

N#CC(C#N)(Cc1ncc(C(F)(F)F)cn1)c1ccccc1 [II-16]
≥ 75%: mortality at 500 ppm [1] | mortality at 2500 µg/mL [10] | mortality at 500 ppm [2] | mortality at 500 ppm [9] | mortality at 500 ppm [11] | mortality at 2500 ppm [3] | mortality at 2500 ppm [5] | mortality at 500 ppm [12] | mortality at 300 ppm [6] | mortality at 2500 ppm [7]

N#CC(C#N)(Cc1cnc(C(F)(F)F)cn1)c1ccccc1 [II-26]
≥ 75%: mortality at 500 ppm [1] | mortality at 2500 ppm [13] | mortality at 500 ppm [2] | mortality at 500 ppm [9] | mortality at 2500 ppm [3] | mortality at 2500 ppm [4] | mortality at 2500 ppm [5] | mortality at 500 ppm [12] | mortality at 2500 ppm [7]
